In PubChem BioAssay (NCI):
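Results reflect a 48-hour exposure of cells in 96-well plates to compound at five concentrations. TGI: concentration producing complete growth inhibition.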

Tests used:
Assay in all cases: growth of human tumour cells (NCI), 48 h
[1] = tested on: A498 renal
[2] = tested on: CAKI-1 renal
[3] = tested on: HS 578T breast
[4] = tested on: NCI-H226 lung
[5] = tested on: NCI-H460 lung
[6] = tested on: SF-268 CNS
[7] = tested on: SK-OV-3 ovarian
[8] = tested on: SN12C renal
[9] = tested on: T-47D breast
[10] = tested on: TK-10 renal
[11] = tested on: DLD-1 colon
[12] = tested on: DMS 114 small cell lung
[13] = tested on: DMS 273 small cell lung
[14] = tested on: KM20L2 colon
[15] = tested on: LXFL 529 NSCLC
[16] = tested on: M19-MEL melanoma
[17] = tested on: SNB-78 CNS
[18] = tested on: XF 498 CNS

CCCN(CCCc1ccccc1)CCc1ccc2[nH]c(=S)[nH]c2c1
TGI [1]: > 100 µM | TGI [2]: > 100 µM | TGI [3]: > 100 µM | TGI [4]: > 100 µM | TGI [5]: 26.1 µM | TGI [6]: > 100 µM | TGI [7]: > 100 µM | TGI [8]: > 100 µM | TGI [9]: 43.2 µM | TGI [10]: > 100 µM

COC(=O)C1CN=CN1CCc1ccccc1 (stereo not given)
TGI [1]: > 100 µM | TGI [2]: > 100 µM | TGI [3]: > 100 µM | TGI [4]: > 100 µM | TGI [5]: > 100 µM | TGI [7]: > 100 µM | TGI [9]: > 100 µM | TGI [10]: > 100 µM

C=CCC(N(C)C(=O)[C@H](Cc1ccccc1)NC(=O)OCc1ccccc1)P(=O)(Oc1ccccc1)Oc1ccccc1 (stereo not given in full)
TGI [11]: > 100 µM | TGI [12]: > 100 µM | TGI [13]: > 100 µM | TGI [14]: > 100 µM | TGI [15]: > 100 µM | TGI [16]: > 100 µM | TGI [4]: > 100 µM | TGI [5]: > 100 µM | TGI [6]: > 100 µM | TGI [7]: > 100 µM | TGI [8]: > 100 µM | TGI [17]: > 100 µM | TGI [10]: > 100 µM | TGI [18]: > 100 µM

Cn1c2ccc3cc2c(=S)c2cc(ccc21)OCCOCCOCCOCCOCCO3
TGI [1]: > 10 µM | TGI [2]: > 10 µM | TGI [3]: > 10 µM | TGI [4]: > 10 µM | TGI [5]: > 10 µM | TGI [6]: > 10 µM | TGI [7]: > 10 µM | TGI [8]: > 10 µM | TGI [9]: > 10 µM | TGI [10]: > 10 µM

CCOC(=O)/C=C/n1c2ccccc2c(=O)c2ccccc21
TGI [1]: > 100 µM | TGI [2]: > 100 µM | TGI [11]: > 100 µM | TGI [12]: > 100 µM | TGI [13]: > 100 µM | TGI [14]: > 100 µM | TGI [15]: > 100 µM | TGI [16]: > 100 µM | TGI [4]: > 100 µM | TGI [5]: > 100 µM | TGI [6]: > 100 µM | TGI [8]: > 100 µM | TGI [10]: > 100 µM | TGI [18]: > 100 µM

CC(=O)O[C@H]1C(=O)[C@@]2(C)[C@H]([C@H](OC(=O)c3ccccc3)[C@]3(O)C[C@H](OC(=O)[C@H](O)[C@@H](NC(=O)c4cccc(N=[N+]=[N-])c4)c4ccccc4)C(C)=C1C3(C)C)[C@]1(OC(C)=O)CO[C@@H]1C[C@@H]2O
TGI [1]: 7.62 µM | TGI [2]: > 25 µM | TGI [3]: 0.0712 µM | TGI [4]: > 25 µM | TGI [5]: > 25 µM | TGI [6]: > 25 µM | TGI [7]: > 25 µM | TGI [8]: > 25 µM | TGI [9]: > 25 µM | TGI [10]: > 20.1 µM

COc1cc(-c2cc(-c3ccccc3)nc(-c3c(OC)ccc4c(C)cc(=O)oc34)c2)cc(OC)c1OC
TGI [1]: > 100 µM | TGI [2]: > 100 µM | TGI [3]: > 100 µM | TGI [4]: > 100 µM | TGI [5]: > 100 µM | TGI [6]: > 100 µM | TGI [7]: > 100 µM | TGI [8]: > 100 µM | TGI [9]: > 100 µM | TGI [10]: > 100 µM

C=CCc1cccc2cc(C(=O)Nc3ccccc3)c(=N)oc12
TGI [1]: 50.3 µM | TGI [2]: > 100 µM | TGI [3]: > 100 µM | TGI [4]: > 100 µM | TGI [5]: > 100 µM | TGI [6]: > 100 µM | TGI [7]: > 100 µM | TGI [8]: > 100 µM | TGI [9]: 85.7 µM

CC(=O)OCC1OC(OC2CC3C(C)(C)C(OC(C)=O)CC[C@]3(C)C3CCC45CC4(CCC5[C@@H](C)C[C@H](O)C(O)C(C)(C)O)[C@]23C)C(O)C(O)C1O (stereo not given in full)
TGI [1]: > 10 µM | TGI [2]: > 10 µM | TGI [3]: > 10 µM | TGI [4]: > 10 µM | TGI [5]: > 10 µM | TGI [6]: > 10 µM | TGI [7]: > 10 µM | TGI [8]: > 10 µM | TGI [9]: > 10 µM | TGI [10]: > 10 µM

COC(=O)CC1NC(=O)[C@@H]1C(C)O (stereo not given in full)
TGI [1]: > 100 µM | TGI [12]: > 100 µM | TGI [13]: > 100 µM | TGI [14]: > 100 µM | TGI [15]: > 100 µM | TGI [16]: > 100 µM | TGI [4]: > 100 µM | TGI [5]: > 100 µM | TGI [6]: > 100 µM | TGI [8]: > 100 µM | TGI [10]: > 100 µM | TGI [18]: > 100 µM

Cc1cccc(CP(Cc2cccc(C)c2)CC2(Cp3c4ccccc4c4ccccc43)COC2)c1
TGI [1]: > 100 µM | TGI [2]: > 76.5 µM | TGI [3]: > 100 µM | TGI [4]: > 100 µM | TGI [5]: > 100 µM | TGI [6]: > 100 µM | TGI [7]: > 100 µM | TGI [8]: > 31.6 µM | TGI [9]: > 100 µM | TGI [10]: > 71.8 µM

O=C(NCCNCCCNC(=O)c1cc(-c2ccccc2)nc2ccccc12)c1cccc(O)c1O
TGI [1]: 55.9 µM | TGI [2]: > 100 µM | TGI [3]: > 100 µM | TGI [4]: 36.3 µM | TGI [5]: 41.6 µM | TGI [6]: 16.4 µM | TGI [7]: > 100 µM | TGI [8]: 52.6 µM | TGI [9]: 10.8 µM | TGI [10]: 64.4 µM

CCOC(=O)c1cn2c(n1)sc1c(Cl)c(Cl)ccc12
TGI [1]: > 100 µM | TGI [2]: 65.3 µM | TGI [3]: 28.6 µM | TGI [4]: 51.6 µM | TGI [5]: > 100 µM | TGI [6]: > 54.9 µM | TGI [7]: > 100 µM | TGI [8]: 39 µM | TGI [9]: > 90.5 µM | TGI [10]: > 79.4 µM

CCC12CCCN(Cc3ccccc3)C1c1c(n(C)c3ccccc13)C(C(=O)OC)C2 (stereo not given)
TGI [2]: > 239 µM | TGI [11]: > 239 µM | TGI [12]: > 239 µM | TGI [13]: > 239 µM | TGI [14]: > 239 µM | TGI [15]: > 239 µM | TGI [16]: > 239 µM | TGI [4]: > 239 µM | TGI [5]: > 239 µM | TGI [6]: > 239 µM | TGI [7]: > 239 µM | TGI [8]: > 239 µM | TGI [10]: > 239 µM | TGI [18]: 118 µM

O=S(=O)(O)C(=Nc1cccc(Cc2ccccc2)c1)Nc1cccc(Cc2ccccc2)c1
TGI [1]: 45.8 µM | TGI [2]: > 100 µM | TGI [3]: 45.5 µM | TGI [4]: 33.7 µM | TGI [6]: 33.6 µM | TGI [7]: 36.9 µM | TGI [8]: 37.2 µM | TGI [9]: 32.1 µM | TGI [10]: 35.6 µM

CCOP(=O)(OCC)C(C)(CC)N/C(=N/C(NC(C)=O)(C(F)(F)F)C(F)(F)F)NC1=NC(C(F)(F)F)(C(F)(F)F)N=C(C(F)(F)F)O1 (stereo not given)
TGI [1]: > 100 µM | TGI [2]: > 100 µM | TGI [3]: > 100 µM | TGI [4]: 70.1 µM | TGI [5]: > 100 µM | TGI [6]: > 100 µM | TGI [7]: > 100 µM | TGI [8]: > 100 µM | TGI [9]: > 100 µM | TGI [10]: > 100 µM

Brc1cc(CCOC2CCCCO2)c(-c2sccc2CCOC2CCCCO2)s1 (stereo not given)
TGI [1]: > 100 µM | TGI [2]: > 100 µM | TGI [3]: > 95.7 µM | TGI [4]: > 100 µM | TGI [5]: > 100 µM | TGI [6]: > 100 µM | TGI [7]: > 100 µM | TGI [8]: > 100 µM | TGI [9]: > 100 µM | TGI [10]: > 100 µM

CC1CN(c2ccc(Cl)cc2)CC(C)OC(=O)O1 (stereo not given)
TGI [2]: > 100 µM | TGI [11]: > 100 µM | TGI [12]: > 100 µM | TGI [13]: > 100 µM | TGI [14]: > 100 µM | TGI [15]: > 100 µM | TGI [16]: > 100 µM | TGI [4]: > 100 µM | TGI [5]: > 100 µM | TGI [6]: > 100 µM | TGI [7]: > 100 µM | TGI [8]: > 100 µM | TGI [17]: > 100 µM | TGI [10]: > 100 µM | TGI [18]: > 100 µM
